Read-outs that look alike come from different tables or passages of the source.
Key:
[1] = tested on: CEM-C2; test: Proliferation (3H-thymidine) of CEM-C2; format: cell-based, human
Text: (§1) CCRF-CEM, CEM/C1, CEM/C2, CEM-C7, Jurkat, Loucy, Molt-4, HSB-2, SUP-T1, Hut 78, HH, Hut 102, MO, and H9 T-leukemia and T-lymphoma cell lines were purchased from the American Type Culture Collection (Manassas, Va., USA). All of the cell lines were initially expanded and cryopreserved within one month of receipt. Cells were typically used for 6 months at which time a fresh vial of cryopreserved cells was used. Total T cells from healthy donors were isolated via negative selection followed by positive selection using a CD3+ selection kit (Invitrogen, Carlsbad, Calif.). T cells were isolated from patients with T-ALL bone marrow or peripheral blood samples containing more than 70% leukemia cells using a CD2+ isolation kit (STEMCELL Technologies, Vancouver, Canada). All tissues were collected under institutional IRB-approved protocols and all participants gave written informed assent/consent. For in vitro experiments, T-ALL cells were cultured in AIM-V medium supplemented with 20% human AB serum in the presence of recombinant human stem cell factor (50 ng/mL; Amgen, Thousand Oaks, Calif.), insulin (20 nM; Sigma-Aldrich, St Louis, Mo., USA) and IL-7 (50 ng/mL; R&D Systems, Minneapolis, Minn., USA). In other experiments, protein lysate was collected using the Full Moon Biosystems (Sunnyvale, Calif., USA) buffer prior to protein examination by western blot or protein array.
(§2) Cells were cultured in a 96-well plate (Corning Costar, Corning, N.Y., USA) with various concentrations of TLR ligands 1-9, starting at 10 μg/ml, in a final volume of 200 ul. TLR ligands were diluted 2-fold. Cell lines (25-40×10^3/well) were cultured for 54 hours, whereas fresh patient-derived T-ALL cells (200×10^3/well) were cultured for 30 hours prior to adding [^3H]-thymidine for 18 hours. After this time point, cells were harvested with a Packard Filter-Mate-96 cell harvester (Perkin Elmer, Waltham, Mass., USA) and counted on Packard Top Count-NXT (Perkin Elmer, Waltham, Mass., USA). Results were expressed as average counts per minute (cpm). In some experiments CCRF-CEM cells were pre-treated with TLR1-TLR2 ligand (Pam3CysK4; 2.5 ug/ml) for 48 hrs, washed, and then cultured in the presence of varying concentrations of FBS. Forty-eight hours later, proliferation (±SD) was determined by ^3H-thymidine incorporation. Alternatively, apoptosis was measured by flow cytometry after staining cells with Annexin-V (BD Pharmingen, San Diego, Calif., USA) and propidium iodide (Sigma). Cell number was counted under microscopy by staining cells with trypan blue. […]

[2] = tested on: MO; test: Proliferation (3H-thymidine) of MO; format: cell-based, human; settings: 3H-thymidine uptake, 72 h
Text: as §1, with “In other experiments, protein lysate was collected using the Full Moon Biosystems (Sunnyvale, Calif., USA) buffer prior to protein examination by western blot or protein array.” left out
as §2, with “TLR ligands were diluted 2-fold. Cell lines (25-40×10^3/well) were cultured for 54 hours, whereas fresh patient-derived T-ALL cells (200×10^3/well) were cultured for 30 hours prior to adding [^3H]-thymidine for 18 hours.” left out, “In some experiments CCRF-CEM cells were pre-treated with TLR1-TLR2 ligand (Pam3CysK4; 2.5 ug/ml) for 48 hrs, washed, and then cultured in the presence of varying concentrations of FBS.” left out

[3] = tested on: T-ALL cells from patients; test: Proliferation (3H-thymidine) of patient T-ALL cells; format: cell-based, human
Text: as §1, with “In other experiments, protein lysate was collected using the Full Moon Biosystems (Sunnyvale, Calif., USA) buffer prior to protein examination by western blot or protein array.” left out
Cells were cultured in a 96-well plate (Corning Costar, Corning, N.Y., USA) with various concentrations of TLR ligands 1-9, starting at 10 μg/ml, in a final volume of 200 ul. […] After this time point, cells were harvested with a Packard Filter-Mate-96 cell harvester (Perkin Elmer, Waltham, Mass., USA) and counted on Packard Top Count-NXT (Perkin Elmer, Waltham, Mass., USA). Results were expressed as average counts per minute (cpm). […] Forty-eight hours later, proliferation (±SD) was determined by ^3H-thymidine incorporation. Alternatively, apoptosis was measured by flow cytometry after staining cells with Annexin-V (BD Pharmingen, San Diego, Calif., USA) and propidium iodide (Sigma). Cell number was counted under microscopy by staining cells with trypan blue.

[4] = tested on: Jurkat; test: Proliferation (3H-thymidine) of Jurkat; format: cell-based, human; settings: 3H-thymidine uptake, 72 h
Text: as §1, §2

[5] = tested on: SupT1; test: Proliferation (3H-thymidine) of SupT1; format: cell-based, human
Text: as §1
(§3) Cells were cultured in a 96-well plate (Corning Costar, Corning, N.Y., USA) with various concentrations of TLR ligands 1-9, starting at 10 μg/ml, in a final volume of 200 ul. TLR ligands were diluted 2-fold. Cell lines (25-40×10^3/well) were cultured for 54 hours, whereas fresh patient-derived T-ALL cells (200×10^3/well) were cultured for 30 hours prior to adding [^3H]-thymidine for 18 hours. After this time point, cells were harvested with a Packard Filter-Mate-96 cell harvester (Perkin Elmer, Waltham, Mass., USA) and counted on Packard Top Count-NXT (Perkin Elmer, Waltham, Mass., USA). Results were expressed as average counts per minute (cpm). In some experiments CCRF-CEM cells were pre-treated with TLR1-TLR2 ligand (Pam3CysK4; 2.5 ug/ml) for 48 hrs, washed, and then cultured in the presence of varying concentrations of FBS. Forty-eight hours later, proliferation (±SD) was determined by ^3H-thymidine incorporation. Alternatively, apoptosis was measured by flow cytometry after staining cells with Annexin-V (BD Pharmingen, San Diego, Calif., USA) and propidium iodide (Sigma). Cell number was counted under microscopy by staining cells with trypan blue.
(§4) The following TLR ligands were purchased from Invivogen (San Diego, Calif., USA): tripalmitoyl-S-(bis(palmitoyloxy)propyl)-Cys-Ser-(Lys)3-Lys (TLR1-2); Poly I:C (TLR3); ultrapure S. Minnesota Lipopolysaccharide (TLR4); S. typhimurium flagellin (TLR5); FSL-1 (TLR2/6); Imiquimod (TLR7); ssRNA40/Lyovec (TLR8); CpG-ODN 2006 (TLR9).

[6] = tested on: CEM-C7; test: Proliferation (3H-thymidine) of CEM-C7; format: cell-based, human
Text: as §1, §3, §4

[7] = tested on: HSB-2; test: Proliferation (3H-thymidine) of HSB-2; format: cell-based, human
Text: as §1, §3, §4

[8] = tested on: panel of 27 other kinases; settings: supplier (EMD Millipore) description, cited from earlier work
[9] = tested on: A375 melanoma cells; test: A375 melanoma xenograft model; settings: IRAK-1,-4 inhibitor 35 mg/kg intratumorally, vinblastine 0.25 mg/kg i.p.; control 17 days
Method: (A-B) NSG mice (n=5) were injected subcutaneously with A375 melanoma cells. When tumors reached a size of approximately 50 mm^2 mice remained untreated or injected intraperitoneally with vinblastine mg/kg; administered every 2 days for 10 days), or peritumorally with IRAK-1,-4 inhibitor (35 mg/kg), or vinblastine plus IRAK.-1,-4 inhibitor. Tumor sizes were calculated by measuring perpendicular by longitudinal diameter;*, P<0.05. Mouse survival data were analyzed using the exact log-rank test;*, P<0.05, **P<0.001.
NOD.Cg-Prkdc^scid Il2rg^tmWJZ; SzJ IL2RG (NSG) mice (Jackson Laboratories, Bar Harbor, Me.) were subcutaneously (s.c.) injected with 2.5×10^6 A375 melanoma cells delivered in PBS. […] When tumors reached a size of approximately 50 mm^2 mice were injected intratumorally (i.t.) with 35 mg/kg of IRAK-1,-4 inhibitor or an equal volume of vehicle (DMSO). Mice were intraperitoneally (i.p.) injected with vinblastine (0.25 mg/kg) every 2 days for 5 days starting on the same day that mice received with IRAK-1,-4 inhibitor. Tumor sizes were analyzed using a mixed model approach for repeated measurements and mouse survival data were analyzed with the exact log-rank test.

[10] = tested on: patient T-ALL cells; test: Western blot of patient T-ALL samples from treated NSG mice; format: in vivo
Method: (§5) CCRF-CEM (2×10^6) cells were injected intravenously (i.v.) into female NOD.Cg-Prkdc^scid Il2rg^tm1WJl/SzJ IL2RG (NSG) mice (Jackson Laboratories, Bar Harbor, Me.). […] In some experiments mice were injected i.v. with TLR1-TLR2 ligand (2.5 μg) two days after injecting cells. In other experiments mice were injected intraperitoneally (i.p.) with IRAK-1,-4 inhibitor (10 mg/kg) 3, 6, and 9 days (CCRF-CEM cells) or 7, 10, and 13 days (patient T-ALL cells) after detecting CD7^+ T-ALL cells in circulation. The numbers of T-ALL cells in the bone marrow, spleen, liver, and in circulation were determined by staining cells with anti-human CD7 and/or CD5. To compare T-ALL numbers between groups, 10 μl of calibration microbeads (BD Pharmingen) were added to 50 μl of blood (or marrow or spleen suspensions) and the flow cytometry instrument gates were set to count a constant number of beads.
The levels of p-mTOR and p-p65 were also examined in patient T-ALL samples obtained from mice treated with IRAK-1,-4 inhibitor or DMSO.

[11] = tested on: patient T-ALL cells; test: Patient T-ALL numbers in NSG mice (flow cytometry); format: in vivo; settings: patient T-ALL cells in irradiated NSG mice; 10 mg/Kg i.p. days 7, 10, 13; FIG. 12
Method: FIG. 12. […] NSG mice were irradiated (400 cGy) one day prior to intravenous injection of patient T-ALL cells (6×10^6 cells/mouse). Once 100 T-ALL cells/ul of blood were detected, mice were received one intraperitoneal injection with IRAK-1,-4 inhibitor (10 mg/Kg) or an equal volume of control vehicle (DMSO) on days 7, 10 and 13. Numbers of T-ALL cells (CD7^+) in peripheral blood were determined on day 27 and D21 by flow cytometry as described in FIG. 1. All the data shown are representative of two independent experiments (±SD) with three mice per group. Representative dot plots from bone marrow are shown in A (left panel). ANOVA; *P<0.05.
as §5, with “To compare T-ALL numbers between groups, 10 μl of calibration microbeads (BD Pharmingen) were added to 50 μl of blood (or marrow or spleen suspensions) and the flow cytometry instrument gates were set to count a constant number of beads.” left out

Row | Compound | Proliferative effects of TLR ligands ([1]; 3H-thymidine uptake, 72 h) | TLR ligand concentration in parentheses below the symbol ([1]; no unit in table (μg/ml)) | Proliferative effects of TLR ligands [2] | proliferation of patient T-ALL samples ([3]; five T-ALL patient samples, TLR1-TLR2 ligand, p<0.01, FIG. 6B) | concentrations giving increased proliferation ([3]; responding T-ALL patient samples, FIG. 6B) | Proliferative effects of TLR ligands [4] | Proliferative effects of TLR ligands ([5]; SupT1, 3H-thymidine uptake, 72 h) | effect on proliferation (in words) ([5]; SupT1 T-lymphoblastic leukemia, FIG. 1A) | Proliferative effects of TLR ligands ([6]; 3H-thymidine uptake, 72 h) | TLR ligand concentration in parentheses below the symbol ([6]; no unit in table (μg/ml)) | Proliferative effects of TLR ligands ([7]; 3H-thymidine uptake, 72 h) | TLR ligand concentration in parentheses below the symbol ([7]; no unit in table (μg/ml)) | activity against a panel of 27 other kinases [8] | activity against a panel of 27 other kinases ([8]; listed as IRAK.-1,-4 inhibitor) | median survival [9] [days] | proliferation of patient T-ALL samples ([3]; samples with phosphorylated IRAK-1,-4, vs equal volume DMSO, FIG. 6D) | p-mTOR levels ([10]; patient sample #810 (barely detectable p-IRAK-4), treated in vivo) | reduction of p-p65 levels ([10]; patient samples #825 and #828 from treated NSG mice) | T-ALL numbers (CD7+) in peripheral blood [11]
1 | tripalmitoyl-S-(bis(palmitoyloxy)propyl)-Cys-Ser-(Lys)3-Lys [Pam3Cysk4] | + (enhanced proliferation by 25% or greater) | (2.5) | ∘ | Two of five samples exhibited increased proliferation | above 1.25 μg/ml | ∘ | ∘ | no effect on proliferation | + (enhanced proliferation by 25% or greater) | (2.5) | − (reduced proliferation) | (5) | – | – | – | – | – | – | –
2 | O=C(Nc1nc2ccccc2n1CCN1CCOCC1)c1cccc([N+](=O)[O-])c1 [IRAK-1,-4 inhibitor] | – | – | – | – | – | – | – | – | – | – | – | – | little to no activity | little activity | 19 | Every sample exhibited reduced proliferation | did not show changes | two-fold | reduces T-ALL numbers

From patent US9464326B2, “Total and phosphorylated IL-1 receptor-associated kinase-1 and IL-1 receptor-associated kinase-4 as a biomarker for cancer progression and chemotherapy resistance” (University of Maryland, Baltimore, priority 2012, dated 2016)
